Experimental data published in patent EP0902088A2, “Peptides with antiproliferative properties” (Radulescu, Razvan T., priority 1996, dated 1999).
“Also recorded” adds a separate entry of the source.

Tests used:
[1] = system: MCF-7-Zellen; experiment: Cell cycle analysis by FACS in MCF-7 breast carcinoma cells; type: cell-based, human
Text: Die eine Versuchsanordnung beinhaltet Versuche mit der humanen intaktes Retinoblastomprotein enthaltenden Mammakarzinom-Zell-Linie MCF-7 bzw. der humanen defektes Retinoblastomprotein enthaltenden Osteosarkom-Zell-Linie SAOS-2. Man sät die Zellen zuerst in 12-well-Platten 100.000 (= Hunderttausend) Zellen/-well/ml RPMI oder DMEM/10% FCS) aus, läßt sie 24 Stunden adhärieren, […], und stimuliert sie dann entweder mit 10% FCS oder 10^-8 M IGF-1 oder 10^-6 M Insulin für 24 Stunden, wobei der Effekt der jeweils zugegebenen Peptide auf die jeweilige Stimulation, die ein Maß für die Zellteilungsrate ist, untersucht wird. Die Kontrollgruppe (G0/G1-synchronisierte Zellen) wird zum Zeitpunkt 0 nach der dreitägigen Hungerphase fixiert, die restlichen Zellen (+/- Peptid) werden nach 24 Stunden fixiert. Daraufhin werden die Zellen zwecks Zellzyklusanalyse im FACS analysiert. Analoge Methoden finden sich beispielsweise bei R. Fahraeus et al., Current Biology, 1996, Vol. 6, No. 1, pp 84-91 sowie bei L. Zhu et al., Genes & Development, 1993, Vol. 7, pp. 1111-1125.

[2] = system: K562-Zellen; experiment: Cytotoxicity by trypan blue counting in K562 leukaemia cells; type: cell-based; conditions: asynchronous K562 in RPMI with 10 % FCS, peptide 10^-5M, several time points
Text: Fig. 13 zeigt, daß der zytotoxische Effekt des erfindungsgemäßen Peptids P3 [10^-5M] auf asynchrone K562-Zellen, die in RPMI-Zellkulturmedium mit 10 % FCS inkubiert wurden, zeitabhängig ist. Die Ergebnisse wurden aufgetragen als lebende mit P3 behandelte Zellen als Prozent der lebenden mit P3 nicht behandelten Zellen. Die Zahl der lebenden Zellen wurde ermittelt, indem man mindestens 200 Zellen mit der Trypanblaumethode zu jedem angegebenen Zeitpunkt auszählte.
(§1) Die zweite Versuchsanordnung betrifft die Leukämie-Zell-Linien K562 und CCRF-CEM und CCRF-CEM/ACT400. Hierbei wurden jeweils 100.000 asynchrone Zellen/well/ml RPMI/10% FCS für 48 Stunden mit den jeweiligen Peptiden in 6-well-Platten inkubiert. Als Readout gilt die Anzahl der mit Hilfe der Trypanblaufärbung (L.D. Attardi et al., The EMBO Journal, 1996, Vol. 15, No. 14, pp. 3693-3701 und M.K. Reeder & H.C. Isom, Cell Growth & Differentiation, 1996, Vol. 7, pp. 449-460) nach 48 Stunden Inkubationszeit festgestellten toten Zellen/200 ausgezählte Zellen. Je mehr tote Zellen, desto zytotoxischer das Peptid und damit umso effektiver.

[3] = system: SAOS-2-Zellen; experiment: Cell cycle analysis by FACS in SAOS-2 osteosarcoma cells; type: cell-based, human
Text: Die eine Versuchsanordnung beinhaltet Versuche mit der humanen intaktes Retinoblastomprotein enthaltenden Mammakarzinom-Zell-Linie MCF-7 bzw. der humanen defektes Retinoblastomprotein enthaltenden Osteosarkom-Zell-Linie SAOS-2. Man sät die Zellen zuerst in 12-well-Platten 100.000 (= Hunderttausend) Zellen/-well/ml RPMI oder DMEM/10% FCS) aus, läßt sie 24 Stunden adhärieren, hungert sie anschließend 3 Tage in DMEM ohne FCS mit dem Zweck, die Zellen in der G0/G1-Phase zu synchronisieren, und stimuliert sie dann entweder mit 10% FCS oder 10^-8 M IGF-1 oder 10^-6 M Insulin für 24 Stunden, wobei der Effekt der jeweils zugegebenen Peptide auf die jeweilige Stimulation, die ein Maß für die Zellteilungsrate ist, untersucht wird. Die Kontrollgruppe (G0/G1-synchronisierte Zellen) wird zum Zeitpunkt 0 nach der dreitägigen Hungerphase fixiert, die restlichen Zellen (+/- Peptid) werden nach 24 Stunden fixiert. Daraufhin werden die Zellen zwecks Zellzyklusanalyse im FACS analysiert. Analoge Methoden finden sich beispielsweise bei R. Fahraeus et al., Current Biology, 1996, Vol. 6, No. 1, pp 84-91 sowie bei L. Zhu et al., Genes & Development, 1993, Vol. 7, pp. 1111-1125.

[4] = system: normale humane mononukleäre Zellen des peripheren Blutes; experiment: Effect on normal peripheral blood mononuclear cells; type: cell-based, human; conditions: peptide 10^-5, 24 h incubation
Text: Fig. 15 zeigt, daß das erfindungsgemäße Peptid P3 [10^-5] keinen Effekt auf normale humane mononukleäre Zellen des peripheren Blutes hat, unabhängig davon, ob diese sich in einem ruhenden (a) oder aktivierten (b) Zustand befinden. […] Die Inkubation der Zellen mit P3 erfolgte für einen Zeitraum von 24 Stunden.

[5] = system: CCRF-CEM/ACT 400resistent-Zellen; experiment: Cytotoxicity by trypan blue counting in CCRF-CEM/ACT 400 (resistant) leukaemia cells; type: cell-based; conditions: asynchronous CCRF-CEM/ACT 400 (resistant) in RPMI with 10 % FCS; peptide 10^-5
Text: as §1

[6] = system: CCRF-CEMsensitiv; experiment: Cytotoxicity by trypan blue counting in CCRF-CEM (sensitive) leukaemia cells; type: cell-based; conditions: asynchronous CCRF-CEM (sensitive) in RPMI with 10 % FCS; peptide 10^-5
Text: as §1

[7] = G0/G1-synchronised MCF-7 cells, serum-free, peptide 10^-5M
[8] = MCF-7 stimulated with EGF 10^-8, peptide 10^-5M
[9] = MCF-7 stimulated with IGF-1 10^-8M, peptide 10^-5M
[10] = MCF-7 stimulated with Östradiol (E2) 10^-9M, peptide 10^-5M
[11] = asynchronous MCF-7 in DMEM with 10 % FCS, peptide 10^-5M
[12] = G0/G1-synchronised SAOS-2 cells, serum-free, peptide 10^-5M
[13] = SAOS-2 stimulated with 10 % FS, peptide 10^-5M
[14] = MCF-7 stimulated with Insulin 10^-6M, peptide 10^-5M
[15] = SAOS-2 stimulated with 10 % FCS, peptide 5 x 10^-5M

Compound: CC(C)C[C@@H](N)C(=O)N[C@H](Cc1ccccc1)C(=O)N[C@H](Cc1ccc(O)cc1)C(=O)N[C@H](CCCCN)C(=O)N[C@H](CCCCN)C(=O)N[C@@H](C(=O)NCC(=O)NCC(=O)NCC(=O)NCCCC[C@H](NC(=O)CNC(=O)CNC(=O)CNC(=O)[C@H](NC(=O)[C@@H](CCCCN)NC(=O)[C@@H](CCCCN)NC(=O)[C@@H](Cc1ccc(O)cc1)NC(=O)[C@@H](Cc1ccccc1)NC(=O)[C@H](N)CC(C)C)C(C)C)C(=O)N[C@H](CCCNC(=N)N)C(=O)NCC(=O)NCCCC[C@H](NC(=O)CNC(=O)[C@@H](CCCNC(=N)N)NC(=O)[C@H](CCCCNC(=O)CNC(=O)CNC(=O)CNC(=O)[C@H](NC(=O)[C@@H](CCCCN)NC(=O)[C@@H](CCCCN)NC(=O)[C@@H](Cc1ccc(O)cc1)NC(=O)[C@@H](Cc1ccccc1)NC(=O)[C@H](N)CC(C)C)C(C)C)NC(=O)CNC(=O)CNC(=O)CNC(=O)[C@H](NC(=O)[C@@H](CCCCN)NC(=O)[C@@H](CCCCN)NC(=O)[C@@H](Cc1ccc(O)cc1)NC(=O)[C@@H](Cc1ccccc1)NC(=O)[C@H](N)CC(C)C)C(C)C)C(=O)NCC(=O)O)C(C)C (racemic) [P3, NH2-[dL-dF-dY-dK-dK-dV-GGG]4-[lK-dR-G]2-lK-G-COOH]
- G1-Phase [1, 7]: vermindert
- Morphologie der behandelten Zellen [1, 7]: entspricht der apoptotischer Zellen
- S-Phase [1, 7]: erhöht
- G1-Phase [1, 8]: Zunahme
- G2-Phase [1, 8]: Zunahme
- Morphologie der behandelten Zellen [1, 8]: entspricht der apoptotischer Zellen
- S-Phase [1, 8]: Abnahme
- Morphologie der behandelten Zellen ([1]; MCF-7 stimulated with IGF-1 10^-8M, peptide 5 x 10^-6M): entspricht jeweils der apoptotischer Zellen
- G1-Phase [1, 9]: Zunahme
- G2/M-Phase [1, 9]: Zunahme
- Morphologie der behandelten Zellen [1, 9]: entspricht jeweils der apoptotischer Zellen
- S-Phase [1, 9]: Abnahme
- durch IGF-1 [10^-8M] bedingte Fortschreiten des Zellzyklus ([1]; MCF-7 stimulated with IGF-1 10^-8M, several peptide concentrations (Fig. 7)): in einer konzentrationsabhängigen Weise blockiert
- G1-Phase [1, 10]: Zunahme
- G2-Phase [1, 10]: Zunahme
- Morphologie der behandelten Zellen [1, 10]: entspricht der apoptotischer Zellen
- S-Phase [1, 10]: Abnahme
- G1-Phase [1, 11]: vermindert
- Morphologie der behandelten Zellen [1, 11]: entspricht der apoptotischer Zellen
- S-Phase [1, 11]: erhöht
- zytotoxische Effekt (lebende mit P3 behandelte Zellen als Prozent der lebenden mit P3 nicht behandelten Zellen) [2]: zeitabhängig
- G1-Phase [3, 12]: vermindert
- G2-Phase [3, 12]: erhöht
- Morphologie der behandelten Zellen [3, 12]: entspricht der apoptotischer Zellen
- S-Phase [3, 12]: erhöht
- G1-Phase [3, 13]: Zunahme
- Morphologie der behandelten Zellen [3, 13]: entspricht der apoptotischer Zellen
- S-Phase [3, 13]: Abnahme
- Effekt auf normale humane mononukleäre Zellen des peripheren Blutes ([4]; activated state (b)): keinen Effekt
- morphologische Veränderungen ([4]; resting or activated cells): keine morphologischen Veränderungen
- Effekt auf normale humane mononukleäre Zellen des peripheren Blutes ([4]; resting state (a)): keinen Effekt
- zytotoxischer Effekt [5]: zytotoxisch
- zytotoxischer Effekt [6]: zytotoxisch

Compound: CC(C)C[C@@H](NC(=O)[C@H](NC(=O)[C@H](N)CCCCN)C(C)C)C(=O)N[C@H](Cc1ccc(O)cc1)C(=O)N[C@H](Cc1ccccc1)C(=O)N[C@H](CCCCN)C(=O)NCC(=O)NCC(=O)NCC(=O)NCCCC[C@H](NC(=O)CNC(=O)CNC(=O)CNC(=O)[C@@H](CCCCN)NC(=O)[C@@H](Cc1ccccc1)NC(=O)[C@@H](Cc1ccc(O)cc1)NC(=O)[C@@H](CC(C)C)NC(=O)[C@H](NC(=O)[C@H](N)CCCCN)C(C)C)C(=O)N[C@H](CCCNC(=N)N)C(=O)NCC(=O)NCCCC[C@H](NC(=O)CNC(=O)[C@@H](CCCNC(=N)N)NC(=O)[C@H](CCCCNC(=O)CNC(=O)CNC(=O)CNC(=O)[C@@H](CCCCN)NC(=O)[C@@H](Cc1ccccc1)NC(=O)[C@@H](Cc1ccc(O)cc1)NC(=O)[C@@H](CC(C)C)NC(=O)[C@H](NC(=O)[C@H](N)CCCCN)C(C)C)NC(=O)CNC(=O)CNC(=O)CNC(=O)[C@@H](CCCCN)NC(=O)[C@@H](Cc1ccccc1)NC(=O)[C@@H](Cc1ccc(O)cc1)NC(=O)[C@@H](CC(C)C)NC(=O)[C@H](NC(=O)[C@H](N)CCCCN)C(C)C)C(=O)NCC(=O)O (racemic) [P7s, NH2-[dK-dV-dL-dY-dF-dK-GGG ]4-[lK-dR-G]2-lK-G-COOH]
- G1-Phase [1, 9]: Zunahme
- G2/M-Phase [1, 9]: Zunahme
- Morphologie der behandelten Zellen [1, 9]: entspricht der apoptotischer Zellen
- S-Phase [1, 9]: Abnahme

Compound: CC[C@H](C)[C@H](NC(=O)[C@H](CCCCN)NC(=O)[C@@H](NC(=O)[C@H](CCC(N)=O)NC(=O)[C@H](CCCNC(=N)N)NC(=O)[C@@H](NC(=O)[C@H](CCCCN)NC(=O)[C@H](CCCCN)NC(=O)[C@H](Cc1ccc(O)cc1)NC(=O)[C@H](Cc1ccccc1)NC(=O)[C@@H](N)CC(C)C)C(C)C)[C@@H](C)CC)C(=O)N[C@@H](Cc1c[nH]c2ccccc12)C(=O)N[C@@H](Cc1ccccc1)C(=O)N[C@@H](CCC(N)=O)C(=O)N[C@@H](CC(N)=O)C(=O)N[C@@H](CCCNC(=N)N)C(=O)N[C@@H](CCCNC(=N)N)C(=O)N[C@@H](CCSC)C(=O)N[C@@H](CCCCN)C(=O)N[C@@H](Cc1c[nH]c2ccccc12)C(=O)N[C@@H](CCCCN)C(=O)N[C@@H](CCCCN)C(=O)O [P6, NH2-LFYKKVRQIKIWFQNRRMKWKK-COOH]
- G1-Phase [1, 7]: vermindert
- Morphologie der behandelten Zellen [1, 7]: entspricht der apoptotischer Zellen
- S-Phase [1, 7]: steigert
- G1-Phase [1, 9]: Zunahme
- Morphologie der behandelten Zellen [1, 9]: entspricht der apoptotischer Zellen
- S-Phase [1, 9]: Abnahme; also recorded: vermindern
- S-Phase [1, 14]: vermindern
- G1-Phase [3, 15]: Zunahme
- S-Phase [3, 15]: Abnahme

Compound: H-LFYKKVPKKKRKV-OH [P5, NH2-L-F-Y-K-K-V-P-K-K-K-R-K-V-COOH]
- G1-Phase [1, 7]: vermindert
- S-Phase [1, 7]: steigert
- S-Phase [1, 9]: vermindern
- S-Phase [1, 14]: vermindern
- G1-Phase [3, 15]: Zunahme
- S-Phase [3, 15]: Abnahme

Compound: NH2-KVLYFKRQIKIWFQNRRMKWKK-COOH (H-KVLYFKRQIKIWFQNRRMKWKK-OH) [P8]
- G1-Phase [1, 9]: Zunahme
- G2/M-Phase [1, 9]: Zunahme
- Morphologie der behandelten Zellen [1, 9]: entspricht der apoptotischer Zellen
- S-Phase [1, 9]: Abnahme

Compound: Penetratin [reference compound]
- S-Phase [1, 9]: keinen Effekt
- S-Phase [1, 14]: keinen Effekt
- Bremsen der Zellzyklusprogression von SAOS-2-Zellen ([3]; Tab 2, SAOS-2 stimulated with 10 % FCS): nicht
